Measurements from ChEMBL document CHEMBL1148653, “Synthesis, structural reassignment, and biological activity of type B MAO inhibitors based on the 5H-indeno[1,2-c]pyridazin-5-one core” (J Med Chem, 2006).

How the values were obtained:
[1] = target: T1, Amine oxidase [flavin-containing] A (Homo sapiens, UniProt P21397); assay: Inhibition of MAO-A in human placental mitochondria at 5 uM; design: species or system Placenta
T1 sequence (P21397 whole entry): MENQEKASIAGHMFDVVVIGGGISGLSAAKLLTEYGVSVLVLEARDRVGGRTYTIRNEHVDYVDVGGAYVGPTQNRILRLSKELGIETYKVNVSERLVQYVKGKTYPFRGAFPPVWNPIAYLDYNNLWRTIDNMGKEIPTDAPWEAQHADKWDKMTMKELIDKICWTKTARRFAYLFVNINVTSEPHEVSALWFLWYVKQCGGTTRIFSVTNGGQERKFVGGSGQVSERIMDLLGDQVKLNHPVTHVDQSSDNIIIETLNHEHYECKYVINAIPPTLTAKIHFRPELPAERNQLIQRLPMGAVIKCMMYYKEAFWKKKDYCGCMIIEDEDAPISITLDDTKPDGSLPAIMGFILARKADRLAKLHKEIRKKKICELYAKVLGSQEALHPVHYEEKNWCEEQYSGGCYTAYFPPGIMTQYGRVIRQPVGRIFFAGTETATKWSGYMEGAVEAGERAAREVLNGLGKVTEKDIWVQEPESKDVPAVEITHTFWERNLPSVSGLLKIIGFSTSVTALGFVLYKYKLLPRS

[2] = target: T2, Amine oxidase [flavin-containing] A (Rattus norvegicus, UniProt P21396); assay: Inhibition of MAO-A in rat brain mitochondria
T2 sequence (P21396 whole entry): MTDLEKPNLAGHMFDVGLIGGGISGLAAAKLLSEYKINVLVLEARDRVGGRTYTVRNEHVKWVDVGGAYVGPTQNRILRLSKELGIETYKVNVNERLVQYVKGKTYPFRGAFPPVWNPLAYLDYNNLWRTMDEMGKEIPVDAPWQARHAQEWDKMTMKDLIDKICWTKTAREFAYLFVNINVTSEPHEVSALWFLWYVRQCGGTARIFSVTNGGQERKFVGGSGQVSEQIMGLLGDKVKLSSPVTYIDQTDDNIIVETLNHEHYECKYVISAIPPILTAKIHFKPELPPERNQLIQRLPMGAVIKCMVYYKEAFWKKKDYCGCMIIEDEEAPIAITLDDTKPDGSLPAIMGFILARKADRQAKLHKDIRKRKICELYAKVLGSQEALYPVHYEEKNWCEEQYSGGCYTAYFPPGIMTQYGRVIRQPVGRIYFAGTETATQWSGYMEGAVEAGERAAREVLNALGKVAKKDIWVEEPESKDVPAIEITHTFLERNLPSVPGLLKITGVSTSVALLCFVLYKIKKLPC

[3] = target: T3, Amine oxidase [flavin-containing] B (Rattus norvegicus, UniProt P19643); assay: Inhibition of MAO-B in rat brain mitochondria
T3 sequence (P19643 whole entry): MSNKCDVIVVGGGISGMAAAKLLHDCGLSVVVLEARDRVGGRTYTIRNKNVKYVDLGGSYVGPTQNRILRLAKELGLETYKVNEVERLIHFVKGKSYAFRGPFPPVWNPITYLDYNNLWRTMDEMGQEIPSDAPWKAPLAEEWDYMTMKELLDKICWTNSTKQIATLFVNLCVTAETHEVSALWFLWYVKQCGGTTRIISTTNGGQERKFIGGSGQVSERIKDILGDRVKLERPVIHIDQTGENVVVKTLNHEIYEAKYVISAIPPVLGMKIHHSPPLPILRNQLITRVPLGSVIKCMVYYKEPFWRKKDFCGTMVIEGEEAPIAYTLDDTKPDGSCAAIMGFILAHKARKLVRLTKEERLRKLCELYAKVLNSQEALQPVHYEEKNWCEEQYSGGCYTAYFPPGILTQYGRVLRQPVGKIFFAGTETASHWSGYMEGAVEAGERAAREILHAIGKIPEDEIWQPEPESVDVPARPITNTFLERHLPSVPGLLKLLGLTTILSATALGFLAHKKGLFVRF

Inhibition [1] | IC50 [2] | IC50 [3] | Structure (SMILES)
Not Active |  |  | COc1ccc2c(c1)-c1nnc(-c3cccc(C(F)(F)F)c3)cc1C2=O
 | > 1000 nM | 170 nM | Cc1cc2c(nn1)-c1cc(OCc3ccccc3)ccc1C2=O
 | > 1000 nM | > 1000 nM | COc1ccc2c(c1)-c1nnc(C)cc1C2=O
Not Active |  |  | COc1ccc2c(c1)C(=O)c1cc(-c3cccc(C(F)(F)F)c3)nnc1-2
